One molecule from patent US9034863B2, “Compositions and methods for inhibiting entry of a hepatic virus” (The Board of Trustees of the University of Illinois, priority 2008, dated 2015) can be followed below.

One data set has as its system HCVcc JFH-1. The experiment in a line: HCV binding versus internalization, cell-associated HCV RNA (FIG. 1). It is filed as cell-based, Hepatitis C virus (HCV). Here is the method: Monolayers of human hepatoma cell line Huh7 were inoculated with HCVcc JFH-1 (cell culture produced HCV JFH-1, which is a specific HCV clone isolated from a Japanese Fulminant Hepatitis patient) at an MOI of 0.1 FFU/cell for 6 hours in the presence or absence of increasing concentrations of ezetimibe. Cultures were washed extensively and cell associated RNA was collected 6 and 30 hours post-infection (p.i.) to determine the amount of bound and internalized virus, respectively. […] Results are graphed as means±s.e.m. for triplicate samples. The data presented are representative of three independent experiments. Assay background (i.e., HCV RNA level detected in uninfected samples) is equal to ˜0.5−1.0×10^2 copies/μg total cellular RNA. Significant reduction in HCV RNA levels relative to mock-treated cultures is denoted by a single asterisk (p<0.05, one-way ANOVA and Tukey's post hoc t test).
To decipher whether ezetimibe inhibits HCV cellular binding or subsequent internalization, cell-associated HCV RNA and protein in mock- and ezetimibe-treated HCVcc-infected cultures was examined.

Another data set has as its system Huh7 cells. Nature of the data set: Cell proliferation assay (cellular ATP, […] Plus). The format is cell-based, human. The conditions noted are these: increasing doses. The source says:
The […] Plus Cell Proliferation assay kit (Lonza, Walkersville, Md.), which incorporates bioluminescent detection of cellular ATP as a measure of cell viability and proliferation, was used according to the manufacturer's instructions. Briefly, mock-treated and drug-treated cultures were lysed in Cell Lysis reagent for […]. One hundred μl of culture medium was transferred to white 96-well plates (BD Biosciences) containing ATP detection reagent and luminescence, expressed as relative light units (RLU), was measured (Fluostar OPTIMA). To assess drug-induced cellular toxicity, a bioluminescence-based assay (The TOXILIGHT BioAssay Kit, Lonza) that measures adenylate kinase (AK) released from damaged cells was used as per the manufacturer's instructions. […] One hundred μl of AK detection reagent was then added to each well, and luminescence (RLU) was measured (Fluostar OPTIMA).
To ensure that the inhibition observed was not due to ezetimibe-induced changes in cell proliferation or cytotoxicity, cellular ATP was measured as a read-out of Huh7 cell viability and proliferation and cellular toxicity by adenylate kinase release following treatment with increasing doses of ezetimibe. […] Furthermore, to test the specificity of the observed HCV inhibition, the effect of ezetimibe on entry of another flavivirus, Dengue virus (DNV), was assessed.

Another data set deals with wild-type HCVcc^JFH-1. Nature of the data set: Infection of Huh7 cells with wild-type HCVcc JFH-1, intracellular HCV RNA. The note with it: 30 μM, 48 hours post-infection. It is filed as cell-based, Hepatitis C virus (HCV). As for the experimental part:
Studies have shown that a G451R mutation in the viral envelope glycoprotein (E2) results in HCV virions of […] density and faster infection kinetics (thong, et al. (2006) J. Virol. 80:11082-11093). […] Thus, if ezetimibe was blocking HCV entry via an SR-B1 mediated mechanism, it would be expected that the mutant G451R virus would be less susceptible to the effects of ezetimibe. As a result, experiments were performed to assess the antiviral efficacy of ezetimibe against the SR-B1-independent HCVcc^G451R virus. Monolayers of Huh7 cells were inoculated with either wild-type HCVcc^JFH-1 or HCVcc^G451R at an MOI of 0.01 FFU/cell for 12 hours. Ezetimibe treatment at concentrations of 15 or 30 μM was initiated (and then continued) either 6 hours prior to infection, during the 12 hour incubation of the virus on the cells, or immediately following the 12 hour viral inoculation period. Ezetimibe at a concentration of 30 μM inhibited HCVcc^JFH-1 infection approximately 10-fold at 48 hours post-infection.

Data set [1] has as its system HCV genotype 1b subgenomic replicon. The experiment in a line: HCV sg1b replicon RNA replication in Huh7 cells, RT-qPCR. It is filed as cell-based, Hepatitis C virus (HCV). The conditions noted are these: increasing doses, 72 hours.
A further data set relates to HCV. The experiment in a line: HCV infection initiation in chimeric mice transplanted with human hepatocytes. The format is in vivo.
For data set [2], the system named is HCVcc. Nature of the data set: HCV foci reduction assay, acute HCVcc infection of Huh7 cells. It is filed as cell-based, Hepatitis C virus (HCV). The conditions noted are these: for inhibition at 12.5 µM / inhibition at 25 µM: Hepatitis C virus, Huh-7, read-out: inhibition of HCV foci formation.
Data set [3] concerns HCVcc. Nature of the data set: Steady-state HCVcc RNA levels in chronically infected Huh7 cultures, 24-96 h. The note with it: 30 μM, 24-96 hours post-treatment. It is filed as cell-based, Hepatitis C virus (HCV). As for the experimental part: Huh7 cultures were inoculated with HCVcc at an MOI of 0.01 FFU cell-1. Infected cultures were maintained for an additional 10 days to allow HCV RNA to reach steady-state levels. Cultures were then vehicle-treated, treated with ezetimibe (30 μM) or 2′-C-methylcytidine (12.5 μM). Fresh medium containing the specified treatments was replenished every day throughout the course of the experiment. Intracellular RNA was collected from triplicate wells at 24, 48, 72 and 96 hours post-treatment and HCV RNA was quantified by RT-qPCR and normalized to GAPDH.

Setting [4] is: co-incubated with HCVcc for 12 h.
Where [5] appears, read: pre-treatment 6 h prior to infection, compared to untreated cultures.

Entries after “also recorded” stand apart in the source; their conditions may differ. Like-named read-outs stand apart in the source and are kept apart here.

Broadly, the inhibition is the percentage by which the read-out fell short of the control. As for `O=C1[C@H](CC[C@H](O)c2ccc(F)cc2)[C@@H](c2ccc(O)cc2)N1c1ccc(F)cc1` [ezetimibe, 1-(4-fluorophenyl)-(3R)-[3-(4-fluorophenyl)-(3S)-hydroxypropyl]-(45)-(4-hydroxyphenyl)-2-azetidinone], in the data set with HCVcc JFH-1 (6 hours p.i.), the “virion binding (cell-associated HCV RNA)” value is recorded as “not binding”. In the data set on HCVcc JFH-1 (later time points (30 hours p.i.)), the “HCV entry/internalization (HCV RNA expansion, de novo NS5A expression)” value is on record as “inhibits HCV internalization”. The “cell proliferation (cellular ATP)” value with Huh7 cells is “did not inhibit cell proliferation”. Further, in the data set on wild-type HCVcc^JFH-1, the “inhibition of HCVcc JFH-1 infection” value is “approximately 10 fold”. Further, the “sg1b HCV RNA steady-state levels” value in data set [1] is “did not inhibit HCV subgenomic RNA replication; also recorded: no significant reduction”. Besides, in the data set on HCV, the HCV infection initiation entry is listed as “inhibits HCV infection initiation”. In the data set on HCVcc [2] (setting [4]), the inhibition at 12.5 µM was found to be 90% and the inhibition at 25 µM stood at 99%. For the same molecule, in the data set on HCVcc [2] (setting [5]), the inhibition at 12.5 µM came out at 85% and the inhibition at 25 µM is 95%. Further, in the data set with HCVcc [2] (added to cells post-infection), the “degree of inhibition of HCV foci formation” value was “greatly reduced”. For the same molecule, in the data set on HCVcc [3], the “steady state HCVcc RNA levels” value was “did not inhibit steady state HCVcc RNA levels”.
